Test results: US12338203B2 (TAISHO PHARMACEUTICAL CO., LTD., priority 2019, dated 2025)

target: T1, human LPAR1 (Homo sapiens, UniProt Q92633); experiment: Test Example 1: antagonism against response of LPA-induced increase in intracellular Ca2+ concentration in RH7777 cells stably expressing human LPAR1; assay type: cell-based; conditions: RH7777 cells stably expressing human LPAR1; Fluo-4 fluorescence, FDSS6000; read-out: IC50 value (concentration producing 50% antagonism against response of LPA-induced increase in intracellular Ca2+ concentration) (converted)
T1 construct: expressed in transfected cells
T1 sequence (Q92633 whole entry): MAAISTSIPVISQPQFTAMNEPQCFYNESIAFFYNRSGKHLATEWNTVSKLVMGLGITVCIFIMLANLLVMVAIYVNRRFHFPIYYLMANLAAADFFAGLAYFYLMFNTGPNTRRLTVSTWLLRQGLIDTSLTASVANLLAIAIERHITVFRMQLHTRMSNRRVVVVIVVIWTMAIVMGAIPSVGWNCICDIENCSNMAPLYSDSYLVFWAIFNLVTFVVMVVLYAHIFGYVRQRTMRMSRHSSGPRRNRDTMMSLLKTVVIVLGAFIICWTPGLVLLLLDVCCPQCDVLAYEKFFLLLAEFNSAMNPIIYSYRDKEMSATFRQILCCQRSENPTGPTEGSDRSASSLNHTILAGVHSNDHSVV
Description: (1) Preparation of RH7777 cells stably expressing human LPAR1
The human LPAR1 expression vector was transfected into RH7777 cells to acquire human LPAR1 expressing cells.
(2) Test of antagonism against response of LPA-induced increase in intracellular Ca^2+ concentration
Cells stably expressing human LPAR1 were used for a test of antagonism against response of LPA-induced increase in intracellular Ca^2+ concentration.
The cells were seeded onto the Poly-D-Lysine 96 well black plate and incubated overnight. […] 50 μL of the Basal Buffer (1×HBSS, 20 mM HEPES, 2.5 mM Probenecid, 0.05% BSA, 0.25 mg/mL Amaranth, pH 7.4) containing the test compound was added thereto, followed by incubation at 37° C. for 30 minutes. In FDSS6000 (Hamamatsu Photonics K.K.), LPAs were added, and the change in intracellular Ca^2+ concentration was detected using the fluorescence value of a wavelength of 540 nm by an excitation wavelength of 480 nm as an indicator. […] The Rmax under […] without the test compound was used as the control value. The Rmax under Basal Buffer stimulation with no LPAs or test compounds was used as the basal value.
The percentage (%) of increase in intracellular Ca^2+ concentration was calculated by dividing the value obtained by subtracting the basal value from Rmax in the presence of LPAs and each concentration of the test compound by the value obtained by subtracting the basal value from the control value. The concentration of each test compound was plotted on the X axis and the percentage (%) of increase in intracellular Ca^2+ concentration was plotted on the Y axis, and the IC50 value was calculated by nonlinear regression using XLfit.

**Q.** For `CCOc1cc([C@@H](C)N(CCCCc2ccccc2)C(=O)NC2(C(=O)O)CC(OCC)C2)cc(OCC)c1C(C)=O` (stereo partly drawn) [Example 1-97], which IC50 is on record?
**A.** Its IC50 is 3.94 nM.

**Q.** How did the IC50 turn out when `COc1cc(C(CO)N(CCCCc2ccccc2)C(=O)NC2(C(=O)O)Cc3ccccc3C2)cc(OC)c1C` (stereo not drawn) [Example 3-9] was run?
**A.** Its IC50 is 62.7 nM.

**Q.** How did the IC50 turn out when `CCOc1cc(OCC)cc(C(C)N(CCCCc2ccccc2)C(=O)NC2(C(=O)O)CCCC2)c1` (stereo not drawn) [Example 5-10] was run?
**A.** The IC50 was 35.4 nM.

**Q.** For `COc1cc(C(CO)N(CCCCc2ccccc2)C(=O)NC2(C(=O)O)CC(F)(F)C2)cc(OC)c1C` (stereo not drawn) [Example 3-6], which IC50 is on record?
**A.** The IC50 was 7.07 nM.

**Q.** For `CCOc1cc([C@H](C)N(CCCCc2ccccc2)C(=O)NC2(C(=O)O)CC(F)(F)C2)cc(OCC)c1C(C)=O` [Example 1-31, 1-({[(1S)-1-(4-Acetyl-3,5-Diethoxyphenyl)Ethyl](4-Phenylbutyl) Carbamoyl}Amino)-3,3-Difluorocyclobutane-1-Carboxylic Acid], which IC50 is on record?
**A.** Its IC50 is 177 nM.

**Q.** How did the IC50 turn out when `CCOc1cc([C@@H](C)N(CC(=O)NCc2ccccc2)C(=O)NC2(C(=O)O)CC(F)(F)C2)cc(OCC)c1C` [Example 4-163] was run?
**A.** The IC50 was 384 nM.

**Q.** With `CCNc1cc([C@@H](C)N(CCCCc2ccccc2)C(=O)NC2(C(=O)O)CCC2)cc(OCC)c1C(C)=O` [Example 5-110] as the compound, how does the IC50 read?
**A.** The IC50 was 1.78 nM.

**Q.** `CCOc1cc(C(C)N(CCOCc2ccccc2)C(=O)NC2(c3nn[nH]n3)CC(F)(F)C2)cc(OCC)c1C1CC1` (stereo not drawn) [Example 10-13] was tested. Which IC50 did it give?
**A.** Its IC50 is 3.17 nM.

**Q.** How did the IC50 turn out when `CCOc1cc([C@@H](C)N(CCOCc2ccccc2)C(=O)NC2(C(=O)O)CC(OC)C2)cc(OCC)c1C(C)=O` (stereo partly drawn) [Example 4-107] was run?
**A.** The IC50 was 4.08 nM.

**Q.** For `CCOC(=O)C1(NC(=O)N(CCO[C@@H](C)c2ccccc2)C(C)c2cc(OCC)c(C(C)=O)c(OCC)c2Cl)CC(F)(F)C1` (stereo partly drawn) [Example 6-12], which IC50 is on record?
**A.** Its IC50 is 1270 nM.

**Q.** How did the IC50 turn out when `CCOc1cc([C@@H](C)N(CCC(F)(F)Cc2ccccc2)C(=O)NC2(C(=O)O)CCC2)cc(OCC)c1C(C)=O` [Example 4-81] was run?
**A.** The IC50 was 7.89 nM.

**Q.** For `CCOc1cc(C(C)N(CCCCc2ccccc2)C(=O)NC2(C(=O)O)CC(F)(F)C2)cc(OCC)n1` (stereo not drawn) [Example 5-86], which IC50 is on record?
**A.** Its IC50 is 11 nM.

**Q.** Which IC50 does the source give for `COc1cc(C(C)N(CCOCc2ccccc2)C(=O)NC2(C(=O)O)CCC2)c(C)c(OC)c1C(C)=O` (stereo not drawn) [Example 5-134] here?
**A.** The IC50 was 4.55 nM.

**Q.** `CCOc1cc(C(C)N(CCCCc2ccccc2)C(=O)NC2(C(=O)O)CC(OCC)C2)cc(OCC)c1C(C)=O` (stereo not drawn) [Example 1-96] was tested. Which IC50 did it give?
**A.** The IC50 was 2.11 nM.

**Q.** How did the IC50 turn out when `CCOc1cc(C(C)N(CCCCc2ccccc2)C(=O)NC2(C(=O)O)CC(F)(F)C2)cc(OCC)c1C1(O)CC1` (stereo not drawn) [Example 1-38] was run?
**A.** The IC50 was 5.4 nM.

**Q.** `CCOc1cc([C@@H](C)N(CCOCc2ccccc2)C(=O)NC2(C(=O)O)CC(OC)C2)cc(OCC)c1C(C)=O` (stereo partly drawn) [Example 4-108] was tested. Which IC50 did it give?
**A.** Its IC50 is 3.6 nM.

**Q.** How did the IC50 turn out when `CCOc1cc([C@@H](C)N(CCCC(F)(F)c2ccccc2)C(=O)NC2(C(=O)O)CC(F)(F)C2)cc(OCC)c1C1CC1` [Example 4-59] was run?
**A.** Its IC50 is 1.62 nM.

**Q.** With `CCOc1cc(C(C)N(CCCCc2ccccc2)C(=O)NC2(P(=O)(O)O)CCCC2)cc(OCC)c1C` (single isomer, unassigned) [Example 8-2] as the compound, how does the IC50 read?
**A.** Its IC50 is 20 nM.

**Q.** For `CCOc1cc([C@@H](C)N(CCCCc2ccccc2)C(=O)NC2(C(=O)O)CC(OC)C2)c(Cl)c(OCC)c1C(C)=O` (stereo partly drawn) [Example 5-47], which IC50 is on record?
**A.** Its IC50 is 2.1 nM.

**Q.** Which IC50 does the source give for `CCOC1CC(NC(=O)N(CCOC(C)c2ccccc2)C(C)c2cc(OC)c(C3CC3)c(OC)c2C)(C(=O)O)C1` (stereo not drawn) [Example 5-169] here?
**A.** Its IC50 is 7.97 nM.

**Q.** Which IC50 does the source give for `CCOc1cc([C@@H](C)N(CCO[C@@H](C)c2ccccc2)C(=O)NC2(C(=O)O)CC(OC)C2)c(Cl)c(OCC)c1C(C)O` (single isomer, unassigned) [Example 5-57] here?
**A.** The IC50 was 4.08 nM.

**Q.** Which IC50 does the source give for `CCNc1cc([C@H](C)N(CCCCc2ccccc2)C(=O)NC2(C(=O)O)CC(F)(F)C2)cc(OCC)c1C(C)=O` [Example 5-109] here?
**A.** Its IC50 is 191 nM.

**Q.** `CCOc1cc([C@@H](C)N(CCOCc2ccccc2)C(=O)NC2(C(=O)O)CC(OC)C2)c(C)c(OCC)c1C` (stereo partly drawn) [Example 5-78] was tested. Which IC50 did it give?
**A.** Its IC50 is 1.05 nM.

**Q.** How did the IC50 turn out when `CCOc1cc([C@@H](C)N(CCC(F)(F)Cc2ccccc2)C(=O)NC2(C(=O)O)CC(OC)C2)c(Cl)c(OCC)c1C(C)=O` (stereo partly drawn) [Example 5-41] was run?
**A.** Its IC50 is 10.3 nM.

**Q.** Which IC50 does the source give for `COc1cc(C(C)N(CCOCc2ccccc2)C(=O)NC2(C(=O)O)CCC2)c(Cl)c(OC)c1C(C)=O` (stereo not drawn) [Example 5-132] here?
**A.** Its IC50 is 4.97 nM.

**Q.** For `CCOc1cc(C(C)N(CCCCc2ccccc2)C(=O)NC2(C(=O)O)CC(F)(F)C2)cc(OCC)c1C(C)O` (stereo not drawn) [Example 1-34], which IC50 is on record?
**A.** The IC50 was 1.99 nM.

**Q.** `COc1cc(C(C)N(CCO[C@@H](C)c2ccccc2)C(=O)NC2(C(=O)O)CCC2)c(C)c(OC)c1C` (stereo partly drawn) [Example 5-140] was tested. Which IC50 did it give?
**A.** The IC50 was 10.8 nM.

**Q.** For `CCOc1cc([C@@H](C)N(CCCCc2ccccc2)C(=O)N[C@]2(C(=O)O)C[C@H](OC)C2)c(Cl)c(OCC)c1C(C)=O` [Example 5-49], which IC50 is on record?
**A.** The IC50 was 3.88 nM.

**Q.** Which IC50 does the source give for `CCOc1cc([C@@H](C)N(CCO[C@@H](C)c2ccccc2)C(=O)NC2(C(=O)O)CC(OC)C2)cc(OCC)c1C1(O)CC1` (stereo partly drawn) [Example 4-127] here?
**A.** The IC50 was 21.3 nM.

**Q.** `CCOc1cc([C@@H](C)N(CCCCc2ccccc2)C(=O)NC2(C(=O)O)CC(OCC)C2)cc(OCC)c1C(C)O` (stereo partly drawn) [Example 1-99] was tested. Which IC50 did it give?
**A.** The IC50 was 2.58 nM.

**Q.** Which IC50 does the source give for `CCOc1cc([C@@H](C)N(CC/C=C(\C)c2ccccc2)C(=O)NC2(C(=O)O)CC(F)(F)C2)cc(OCC)c1C` [Example 4-41] here?
**A.** Its IC50 is 4.16 nM.

**Q.** Which IC50 does the source give for `CCOc1cc([C@@H](C)N(CCC(F)(F)Cc2ccccc2)C(=O)NC2(C(=O)O)CC(F)(F)C2)cc(OCC)c1C(C)O` (single isomer, unassigned) [Example 4-85] here?
**A.** Its IC50 is 16.1 nM.

**Q.** How did the IC50 turn out when `CCOc1cc(C(C)N(CCCCc2ccccc2)C(=O)NC2CC(C(=O)O)C2)cc(OCC)c1C(C)=O` (stereo not drawn) [Example 1-129] was run?
**A.** The IC50 was 9.98 nM.

**Q.** With `CCOc1cc([C@@H](C)N(CCCCc2ccccc2)C(=O)NC2(C(=O)O)CCOCC2)cc(OCC)c1C(C)O` (stereo partly drawn) [Example 1-152, 4-{[{(1R)-1-[3,5-Diethoxy-4-(1-Hydroxyethyl)Phenyl]Ethyl}(4-Phenylbutyl) Carbamoyl]Amino}Oxane-4-Carboxylic Acid] as the compound, how does the IC50 read?
**A.** Its IC50 is 5.17 nM.

**Q.** With `CCOc1cc(C(C)N(CCCCc2ccccc2)C(=O)NC2(C(=O)O)CC(F)(F)C2)cc2c1cnn2CC` (stereo not drawn) [Example 5-99, 1-({[1-(4-Ethoxy-1-Ethyl-1H-Indazol-6-Yl)Ethyl](4-Phenylbutyl) Carbamoyl}Amino)-3,3-Difluorocyclobutane-1-Carboxylic Acid] as the compound, how does the IC50 read?
**A.** Its IC50 is 5.6 nM.

**Q.** For `CCOc1cc(C(C)N(CCCCc2ccccc2)C(=O)NC2(c3nn[nH]n3)CC2)cc(OCC)c1C(C)=O` (stereo not drawn) [Example 10-3], which IC50 is on record?
**A.** Its IC50 is 1.9 nM.

**Q.** How did the IC50 turn out when `CCNc1cc(C(C)N(CCCCc2ccccc2)C(=O)NC2(C(=O)O)CC(F)(F)C2)cc(OCC)c1C(C)=O` (stereo not drawn) [Example 5-102] was run?
**A.** The IC50 was 7.35 nM.

**Q.** `CCOc1cc([C@@H](C)N(CCC(F)(F)Cc2ccccc2)C(=O)NC2(C(=O)O)CC(OC)C2)cc(OCC)c1C(C)=O` (stereo partly drawn) [Example 4-90] was tested. Which IC50 did it give?
**A.** The IC50 was 10.1 nM.

**Q.** For `CCOc1cc(C(CO)N(CCCCc2ccccc2)C(=O)NC2(C(=O)O)CC(F)(F)C2)cc(OCC)c1C(C)=O` (stereo not drawn) [Example 3-4, 1-({[1-(4-Acetyl-3,5-Diethoxyphenyl)-2-Hydroxyethyl](4-Phenylbutyl) Carbamoyl}Amino)-3,3-Difluorocyclobutane-1-Carboxylic Acid], which IC50 is on record?
**A.** Its IC50 is 4.03 nM.

**Q.** Which IC50 does the source give for `CCOc1cc([C@@H](C)N(CCCCc2ccccc2)C(=O)NC2(C(=O)O)CCOC2)cc(OCC)c1C` (stereo partly drawn) [Example 1-150] here?
**A.** Its IC50 is 8 nM.

**Q.** How did the IC50 turn out when `CCOc1cc(C(C)N(CCO[C@@H](C)c2ccccc2)C(=O)NC2(C(=O)O)CC(OC)C2)c(Cl)c(OCC)c1C1CC1` (stereo partly drawn) [Example 5-202] was run?
**A.** The IC50 was 1.62 nM.

**Q.** Which IC50 does the source give for `COc1cc(C(C)N(CCOCc2ccccc2)C(=O)NC2(C(=O)O)CC(OC)C2)c(Cl)c(OC)c1C1CC1` (stereo not drawn) [Example 5-161] here?
**A.** Its IC50 is 1.46 nM.
